Measured values taken from patent publication US10457654B2 (GENENTECH, INC., priority 2017, dated 2019).
Structures can show the parent of a compound that is named as a salt.

How the values were obtained:
[1] = target: T1, hNav1.7 (Homo sapiens (Human), UniProt Q15858); experiment: Patch voltage clamp electrophysiology assay (EP), Syncropatch 384PE, CHO cells expressing Nav1.7; assay type: cell-based; settings: holding potential -50 mV; […] compound incubation; read-out: EP_SP hNav1.7 (Ex. 243B) IC50
How it was run: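 Automated whole-cell patch clamp on CHO cells stably expressing human Nav1.7, CsCl/EGTA internal and NMDG/80 mM Na+ external (pH 7.4). From −50 mV holding, −10 mV step, 20 ms recovery at −150 mV, then second −10 mV pulse where block is measured; inhibition after 7.5 min compound incubation.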
Target sequence in this assay (Q15858 other isoform, or with tags, fused parts or gaps): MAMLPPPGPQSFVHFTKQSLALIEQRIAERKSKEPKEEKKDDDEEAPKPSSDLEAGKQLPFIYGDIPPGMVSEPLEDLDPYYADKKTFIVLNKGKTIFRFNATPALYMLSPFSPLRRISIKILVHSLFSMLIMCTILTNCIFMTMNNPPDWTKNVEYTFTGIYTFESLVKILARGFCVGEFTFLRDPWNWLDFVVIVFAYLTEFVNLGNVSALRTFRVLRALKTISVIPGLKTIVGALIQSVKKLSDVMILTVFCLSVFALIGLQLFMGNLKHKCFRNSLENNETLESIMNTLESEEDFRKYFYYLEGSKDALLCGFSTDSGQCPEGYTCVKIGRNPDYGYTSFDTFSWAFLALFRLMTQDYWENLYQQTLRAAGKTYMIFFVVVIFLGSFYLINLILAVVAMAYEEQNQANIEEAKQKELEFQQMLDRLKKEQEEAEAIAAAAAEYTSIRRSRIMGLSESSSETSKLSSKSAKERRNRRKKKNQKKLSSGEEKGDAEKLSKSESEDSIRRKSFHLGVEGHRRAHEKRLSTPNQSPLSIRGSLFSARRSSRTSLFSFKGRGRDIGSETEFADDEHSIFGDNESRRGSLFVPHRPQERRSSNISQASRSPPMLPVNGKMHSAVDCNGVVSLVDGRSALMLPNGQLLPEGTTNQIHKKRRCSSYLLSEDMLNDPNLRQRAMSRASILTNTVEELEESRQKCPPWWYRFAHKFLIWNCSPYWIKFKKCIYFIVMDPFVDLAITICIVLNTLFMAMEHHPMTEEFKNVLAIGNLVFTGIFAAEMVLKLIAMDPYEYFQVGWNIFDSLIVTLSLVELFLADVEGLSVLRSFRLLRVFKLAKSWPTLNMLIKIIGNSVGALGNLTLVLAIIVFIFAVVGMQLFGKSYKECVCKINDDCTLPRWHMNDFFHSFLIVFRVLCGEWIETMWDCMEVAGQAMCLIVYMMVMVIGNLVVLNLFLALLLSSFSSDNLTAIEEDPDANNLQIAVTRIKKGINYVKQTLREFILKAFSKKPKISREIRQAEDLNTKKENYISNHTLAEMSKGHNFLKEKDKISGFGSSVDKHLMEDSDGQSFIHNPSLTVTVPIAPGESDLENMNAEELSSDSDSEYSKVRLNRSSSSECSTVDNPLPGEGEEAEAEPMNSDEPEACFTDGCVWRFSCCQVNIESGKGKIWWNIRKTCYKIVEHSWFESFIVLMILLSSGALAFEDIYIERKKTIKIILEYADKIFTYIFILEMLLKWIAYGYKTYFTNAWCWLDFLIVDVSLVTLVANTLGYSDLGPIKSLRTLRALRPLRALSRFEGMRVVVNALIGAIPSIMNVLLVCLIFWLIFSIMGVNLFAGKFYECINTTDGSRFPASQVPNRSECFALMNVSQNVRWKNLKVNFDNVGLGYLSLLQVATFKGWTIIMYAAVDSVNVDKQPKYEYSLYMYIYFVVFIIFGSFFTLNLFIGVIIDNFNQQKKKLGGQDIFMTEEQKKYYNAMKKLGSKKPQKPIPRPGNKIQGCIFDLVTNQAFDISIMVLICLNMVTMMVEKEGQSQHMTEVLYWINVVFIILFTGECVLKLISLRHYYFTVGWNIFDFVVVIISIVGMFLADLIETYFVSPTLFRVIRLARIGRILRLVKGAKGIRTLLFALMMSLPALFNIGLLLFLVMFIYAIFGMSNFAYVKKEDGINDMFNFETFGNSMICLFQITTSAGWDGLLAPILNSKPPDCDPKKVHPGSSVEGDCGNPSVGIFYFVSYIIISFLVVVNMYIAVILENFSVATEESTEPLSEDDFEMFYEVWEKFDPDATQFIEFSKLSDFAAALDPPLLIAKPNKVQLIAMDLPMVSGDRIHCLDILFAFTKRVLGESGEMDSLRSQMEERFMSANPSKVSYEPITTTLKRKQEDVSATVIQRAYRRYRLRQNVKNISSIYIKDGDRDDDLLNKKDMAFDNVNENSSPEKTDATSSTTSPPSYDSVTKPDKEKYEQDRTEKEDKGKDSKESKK

[2] = target: T1, hNav1.7; experiment: Tritiated compound binding to membranes from cells expressing hNav1.7 and the β1 subunit, competitive binding (LBA, Ex. 243A); settings: 100 pM [3H]compound, 18 h, room temperature; read-out: Nav1.7 LBA (Ex. 243A) IC50
Target sequence in this assay (Q15858 whole entry, looked up): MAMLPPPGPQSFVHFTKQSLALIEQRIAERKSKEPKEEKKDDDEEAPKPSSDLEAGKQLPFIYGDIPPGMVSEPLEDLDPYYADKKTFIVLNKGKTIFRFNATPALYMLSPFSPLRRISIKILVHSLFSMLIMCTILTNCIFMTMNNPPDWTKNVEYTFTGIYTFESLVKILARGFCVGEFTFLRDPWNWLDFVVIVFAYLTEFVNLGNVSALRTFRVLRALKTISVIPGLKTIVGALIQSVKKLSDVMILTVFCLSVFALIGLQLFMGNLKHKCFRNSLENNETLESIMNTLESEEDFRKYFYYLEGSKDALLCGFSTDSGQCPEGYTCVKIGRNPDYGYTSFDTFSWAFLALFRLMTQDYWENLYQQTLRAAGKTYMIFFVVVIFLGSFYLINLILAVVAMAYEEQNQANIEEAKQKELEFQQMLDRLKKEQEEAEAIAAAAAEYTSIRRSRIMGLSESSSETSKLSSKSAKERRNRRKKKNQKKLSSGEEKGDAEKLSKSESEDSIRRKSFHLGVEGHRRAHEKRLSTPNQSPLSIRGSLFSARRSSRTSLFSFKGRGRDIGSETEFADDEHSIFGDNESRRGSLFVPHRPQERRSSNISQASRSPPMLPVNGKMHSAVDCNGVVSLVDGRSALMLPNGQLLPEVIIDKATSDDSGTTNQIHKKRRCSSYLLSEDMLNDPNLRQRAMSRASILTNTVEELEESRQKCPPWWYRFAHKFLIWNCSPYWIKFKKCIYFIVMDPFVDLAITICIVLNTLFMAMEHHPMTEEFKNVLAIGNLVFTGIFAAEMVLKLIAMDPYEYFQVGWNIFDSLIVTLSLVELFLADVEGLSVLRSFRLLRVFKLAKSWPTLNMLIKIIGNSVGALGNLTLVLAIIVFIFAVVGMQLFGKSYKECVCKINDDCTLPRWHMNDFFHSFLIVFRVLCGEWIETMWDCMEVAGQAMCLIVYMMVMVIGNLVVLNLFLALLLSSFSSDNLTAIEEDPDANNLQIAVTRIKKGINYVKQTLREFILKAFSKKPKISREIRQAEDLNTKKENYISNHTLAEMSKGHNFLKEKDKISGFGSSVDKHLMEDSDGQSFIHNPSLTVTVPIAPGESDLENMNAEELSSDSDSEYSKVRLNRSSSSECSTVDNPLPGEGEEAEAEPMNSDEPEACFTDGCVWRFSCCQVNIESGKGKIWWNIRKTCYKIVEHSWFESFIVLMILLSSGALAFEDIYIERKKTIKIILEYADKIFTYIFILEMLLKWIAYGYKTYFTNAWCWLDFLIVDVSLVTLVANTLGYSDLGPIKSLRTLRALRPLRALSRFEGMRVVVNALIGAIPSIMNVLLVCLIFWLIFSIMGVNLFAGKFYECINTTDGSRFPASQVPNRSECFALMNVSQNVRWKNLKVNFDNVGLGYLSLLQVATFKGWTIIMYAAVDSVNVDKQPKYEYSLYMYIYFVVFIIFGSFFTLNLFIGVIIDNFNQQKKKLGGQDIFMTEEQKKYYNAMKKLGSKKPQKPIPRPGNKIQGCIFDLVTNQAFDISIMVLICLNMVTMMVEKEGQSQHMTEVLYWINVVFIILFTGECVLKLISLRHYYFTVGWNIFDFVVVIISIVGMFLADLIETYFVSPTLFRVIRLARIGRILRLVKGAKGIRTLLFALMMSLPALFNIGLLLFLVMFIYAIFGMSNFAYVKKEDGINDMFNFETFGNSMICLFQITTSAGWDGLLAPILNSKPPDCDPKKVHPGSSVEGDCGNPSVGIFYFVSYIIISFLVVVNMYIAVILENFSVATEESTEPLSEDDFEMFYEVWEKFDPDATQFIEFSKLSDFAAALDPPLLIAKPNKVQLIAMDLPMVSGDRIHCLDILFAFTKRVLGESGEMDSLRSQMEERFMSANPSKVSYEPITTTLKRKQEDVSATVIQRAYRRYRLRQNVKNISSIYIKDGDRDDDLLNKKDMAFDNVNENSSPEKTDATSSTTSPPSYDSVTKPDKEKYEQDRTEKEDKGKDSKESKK
Target sequence in this assay (Q07699 whole entry partner, looked up): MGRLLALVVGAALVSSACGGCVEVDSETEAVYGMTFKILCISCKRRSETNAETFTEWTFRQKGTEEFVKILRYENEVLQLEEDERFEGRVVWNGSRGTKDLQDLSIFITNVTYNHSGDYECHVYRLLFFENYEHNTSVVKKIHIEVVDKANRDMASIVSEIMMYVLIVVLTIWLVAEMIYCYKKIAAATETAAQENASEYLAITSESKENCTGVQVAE

[3] = target: T1, hNav1.7; experiment: Tritiated compound binding to membranes from cells expressing hNav1.7 and the β1 subunit, modified protocol (LBA, Ex. 243B); settings: 300 pM [3H]compound, room temperature, read-out: Nav1.7 LBA (Ex. 243B) IC50
Target sequence in this assay (Q15858 whole entry, looked up): as the sequence (Q15858 whole entry, looked up) above
Target sequence in this assay (Q07699 whole entry partner, looked up): as the sequence (Q07699 whole entry partner, looked up) above

Structure (SMILES)	IC50 [1] [nM]	IC50 [2] [nM]	IC50 [3] [nM]
O=S(=O)(Nc1nccs1)c1cc(Cl)c(N[C@H]2CCCC[C@@H]2N2CCCC2)cc1F [Example 30, 5-chloro-2-fluoro-4-(((1S,2S)-2-(pyrrolidin-1-yl)cyclohexyl)amino)-N-(thiazol-2-yl)benzenesulfonamide]	9.77	9.73	
COCCN(C)[C@H]1CCCC[C@@H]1Nc1cc(F)c(S(=O)(=O)Nc2nccs2)cc1Cl [Example 32, 5-chloro-2-fluoro-4-(((1S,2S)-2-((2-methoxyethyl)(methyl)amino)cyclohexyl)amino)-N-(thiazol-2-yl)benzenesulfonamide formate]	24.6	38.2	
CN(C)[C@H]1CCCC[C@@H]1Nc1cc(F)c(S(=O)(=O)Nc2cccc(F)n2)cc1Cl [Example 35, 5-chloro-4-(((1S,2S)-2-(dimethylamino)cyclohexyl)amino)-2-fluoro-N-(6-fluoropyridin-2-yl)benzenesulfonamide]	59.9	65.5	313
CN(CCO)[C@H]1CCCC[C@@H]1Nc1cc(F)c(S(=O)(=O)Nc2nccs2)cc1Cl [Example 38, 5-chloro-2-fluoro-4-(((1S,2S)-2-((2-hydroxyethyl)(methyl)amino)cyclohexyl)amino)-N-(thiazol-2-yl)benzenesulfonamide formate]	3.06	5.05	34.9
CN(C1CNC1)[C@H]1CCCC[C@@H]1Nc1cc(F)c(S(=O)(=O)Nc2nccs2)cc1Cl [Example 39, 4-(((1S,2S)-2-(azetidin-3-yl(methyl)amino)cyclohexyl)amino)-5-chloro-2-fluoro-N-(thiazol-2-yl)benzenesulfonamide dihydrochloride]	1.4	1.88	12.8
CN1CC(N(C)[C@H]2CCCC[C@@H]2Nc2cc(F)c(S(=O)(=O)Nc3nccs3)cc2Cl)C1 [Example 41, 5-chloro-2-fluoro-4-(((1S,2S)-2-(methyl(1-methylazetidin-3-yl)amino)cyclohexyl)amino)-N-(thiazol-2-yl)benzenesulfonamide formate]	3.4	4.51	
CN(C1CNC1)[C@H]1CCCC[C@@H]1Nc1cc(F)c(S(=O)(=O)Nc2ccncn2)cc1Cl [Example 53, 4-(((1S,2S)-2-(azetidin-3-yl(methyl)amino)cyclohexyl)amino)-5-chloro-2-fluoro-N-(pyrimidin-4-yl)benzenesulfonamide]	5.69	30.5	
CN1CC(N(C)[C@H]2CCCC[C@@H]2Nc2cc(F)c(S(=O)(=O)Nc3cccc(F)n3)cc2Cl)C1 [Example 63, 5-chloro-2-fluoro-N-(6-fluoropyridin-2-yl)-4-(((1S,2S)-2-(methyl(1-methylazetidin-3-yl)amino)cyclohexyl)amino)benzenesulfonamide]	5.35	9.81	
CN(C1CNC1)[C@H]1CCCC[C@@H]1Oc1cc(F)c(S(=O)(=O)Nc2nccs2)cc1Cl [Example 66, 4-(((1S,2S)-2-(azetidin-3-yl(methyl)amino)cyclohexyl)oxy)-5-chloro-2-fluoro-N-(thiazol-2-yl)benzenesulfonamide formate]	2.91	2.07	7.74
CN(C[C@@H](O)C(F)(F)F)[C@H]1CCCC[C@@H]1Nc1cc(F)c(S(=O)(=O)Nc2nccs2)cc1Cl [Example 95, 5-chloro-2-fluoro-4-(((1S,2S)-2-(methyl((R)-3,3,3-trifluoro-2-hydroxypropyl)amino)cyclohexyl)amino)-N-(thiazol-2-yl)benzenesulfonamide]		24.3	
CCN[C@H]1CCCC[C@@H]1Oc1cc(F)c(S(=O)(=O)Nc2ccncn2)cc1C1CC1 [Example 96, 5-cyclopropyl-4-(((1S,2S)-2-(ethylamino)cyclohexyl)oxy)-2-fluoro-N-(pyrimidin-4-yl)benzenesulfonamide]		630	
CN(C1COC1)[C@H]1CCCC[C@@H]1Nc1cc(F)c(S(=O)(=O)Nc2nccs2)cc1Cl [Example 97, 5-chloro-2-fluoro-4-(((1S,2S)-2-(methyl(oxetan-3-yl)amino)cyclohexyl)amino)-N-(thiazol-2-yl)benzenesulfonamide]		36.4	
O=S(=O)(Nc1cccc(F)n1)c1cc(Cl)c(N[C@@H]2CCCC[C@H]2N2CCCC2)cc1F [Example 98, 5-chloro-2-fluoro-N-(6-fluoropyridin-2-yl)-4-(((1R,2R)-2-(pyrrolidin-1-yl)cyclohexyl)amino)benzenesulfonamide]		3000	
O=S(=O)(Nc1cccc(F)n1)c1cc(Cl)c(N[C@H]2CCCC[C@@H]2N2CCCC2)cc1F [Example 99, 5-chloro-2-fluoro-N-(6-fluoropyridin-2-yl)-4-(((1S,2S)-2-(pyrrolidin-1-yl)cyclohexyl)amino)benzenesulfonamide]		65.5	
CCN[C@H]1CCCC[C@@H]1Nc1cc(F)c(S(=O)(=O)Nc2ccncn2)cc1C1CC1 [Example 100, 5-cyclopropyl-4-(((1S,2S)-2-(ethylamino)cyclohexyl)amino)-2-fluoro-N-(pyrimidin-4-yl)benzenesulfonamide]		127	
O=S(=O)(Nc1nccs1)c1cc(Cl)c(N[C@H]2CCCC[C@@H]2N2CCOCC2)cc1F [Example 101, 5-chloro-2-fluoro-4-(((1S,2S)-2-morpholinocyclohexyl)amino)-N-(thiazol-2-yl)benzenesulfonamide]		25.5	
CN(C)[C@@H]1CC[C@H](c2cccc(C(F)(F)F)c2)C[C@H]1Nc1cc(F)c(S(=O)(=O)Nc2nccs2)cc1Cl [Example 103, 5-chloro-4-(((1R,2R,5S)-2-(dimethylamino)-5-(3-(trifluoromethyl)phenyl)cyclohexyl)amino)-2-fluoro-N-(thiazol-2-yl)benzenesulfonamide]		32.2	
O=S(=O)(Nc1nccs1)c1cc(Cl)c(N[C@H]2CCCC[C@@H]2N2CCC(F)C2)cc1F (stereo partly drawn) [Example 104, 5-chloro-2-fluoro-4-(((1S,2S)-2-(3-fluoropyrrolidin-1-yl)cyclohexyl)amino)-N-(thiazol-2-yl)benzenesulfonamide]		35.6	
